{
  "source": "ChEMBL document CHEMBL5126634",
  "about": "“Naturally Occurring Partially Reduced Perylenequinones from Fungi” (J Nat Prod, 2022)",
  "key": {"K562": {"test_system": "K562", "experiment": "Cytotoxicity against human K562 cells assessed as cell growth inhibition", "assay_type": "functional, cell-based"}, "SGC-7901": {"test_system": "SGC-7901", "experiment": "Cytotoxicity against human SGC-7901 cells assessed as cell growth inhibition", "assay_type": "functional, cell-based"}, "Bel-7402": {"test_system": "Bel-7402", "experiment": "Cytotoxicity against human Bel-7402 cells assessed as cell growth inhibition", "assay_type": "functional, cell-based"}, "[1]": {"experiment": "Cytotoxicity against human HeLa cells assessed as cell growth inhibition", "assay_type": "toxicity, cell-based", "conditions": "read-out: ID50 (the source's name)"}, "MCF7": {"test_system": "MCF7", "experiment": "Cytotoxicity against human MCF7 cells assessed as cell growth inhibition", "assay_type": "functional, cell-based"}, "HepG2": {"test_system": "HepG2", "experiment": "Cytotoxicity against human HepG2 cells assessed as cell growth inhibition", "assay_type": "functional, cell-based"}, "NCI-H460": {"test_system": "NCI-H460", "experiment": "Cytotoxicity against human NCI-H460 cells assessed as cell growth inhibition", "assay_type": "functional, cell-based"}, "SF-268": {"test_system": "SF-268", "experiment": "Cytotoxicity against human SF-268 cells assessed as cell growth inhibition", "assay_type": "functional, cell-based"}, "[2]": {"biological_target": "Telomerase reverse transcriptase (Homo sapiens, UniProt O14746)", "sequence (O14746 whole entry)": "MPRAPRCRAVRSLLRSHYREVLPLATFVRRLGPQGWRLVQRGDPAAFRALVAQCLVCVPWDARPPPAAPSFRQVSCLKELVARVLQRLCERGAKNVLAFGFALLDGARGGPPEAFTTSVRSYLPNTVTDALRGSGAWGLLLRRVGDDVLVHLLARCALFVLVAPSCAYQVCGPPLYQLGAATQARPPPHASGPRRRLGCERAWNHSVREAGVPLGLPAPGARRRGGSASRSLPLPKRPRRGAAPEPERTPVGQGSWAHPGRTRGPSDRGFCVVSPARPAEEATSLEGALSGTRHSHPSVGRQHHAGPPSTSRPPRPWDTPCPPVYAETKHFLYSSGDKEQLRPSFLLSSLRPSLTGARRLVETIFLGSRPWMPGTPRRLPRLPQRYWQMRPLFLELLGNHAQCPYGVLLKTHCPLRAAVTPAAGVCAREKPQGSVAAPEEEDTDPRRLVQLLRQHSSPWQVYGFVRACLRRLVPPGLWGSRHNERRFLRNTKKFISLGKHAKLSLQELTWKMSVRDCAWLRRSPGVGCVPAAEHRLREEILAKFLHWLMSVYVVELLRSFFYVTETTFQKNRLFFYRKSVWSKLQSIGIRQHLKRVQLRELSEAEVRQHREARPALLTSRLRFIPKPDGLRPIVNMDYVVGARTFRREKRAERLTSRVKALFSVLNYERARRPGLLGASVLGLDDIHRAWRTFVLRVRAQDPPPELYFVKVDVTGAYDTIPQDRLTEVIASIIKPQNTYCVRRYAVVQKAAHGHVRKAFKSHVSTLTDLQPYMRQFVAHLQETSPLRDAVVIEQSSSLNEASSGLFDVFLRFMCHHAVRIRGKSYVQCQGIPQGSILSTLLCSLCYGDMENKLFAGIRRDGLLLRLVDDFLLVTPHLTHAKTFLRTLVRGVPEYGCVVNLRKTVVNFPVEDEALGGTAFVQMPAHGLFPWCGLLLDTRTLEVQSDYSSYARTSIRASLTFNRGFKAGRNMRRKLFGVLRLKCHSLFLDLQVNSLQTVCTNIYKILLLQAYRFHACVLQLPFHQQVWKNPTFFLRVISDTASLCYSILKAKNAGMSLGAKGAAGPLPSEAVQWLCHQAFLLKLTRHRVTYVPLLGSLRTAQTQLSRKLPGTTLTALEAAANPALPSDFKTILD", "experiment": "Inhibition of human telomerase"}, "Leishmania donovani": {"test_system": "Leishmania donovani", "experiment": "Antileishmanial activity against Leishmania donovani promastigotes assessed as parasite growth inhibition incubated for 72 hrs by Alamar blue assay", "assay_type": "functional, organism-based"}, "L5178Y": {"test_system": "L5178Y", "experiment": "Cytotoxicity against mouse L5178Y cells assessed as cell growth inhibition", "assay_type": "functional, cell-based"}, "PC-3": {"test_system": "PC-3", "experiment": "Cytotoxicity against human PC-3 cells assessed as cell growth inhibition", "assay_type": "functional, cell-based"}, "[3]": {"experiment": "Cytotoxicity against African green monkey Vero cells assessed as cell growth inhibition incubated for 48 hrs by neutral red dye based assay", "assay_type": "toxicity", "conditions": "African green monkey (Chlorocebus sabaeus)"}, "Plasmodium falciparum [4]": {"test_system": "Plasmodium falciparum", "experiment": "Antimalarial activity against chloroquine sensitive Plasmodium falciparum D6 assessed as parasite growth inhibition incubated for 72 hrs by Malstat reagent assay", "assay_type": "functional, organism-based", "conditions": "D6, 72 h"}, "Plasmodium falciparum [5]": {"test_system": "Plasmodium falciparum", "experiment": "Antimalarial activity against chloroquine resistant Plasmodium falciparum W2 assessed as parasite growth inhibition incubated for 72 hrs by Malstat reagent assay", "assay_type": "functional, organism-based", "conditions": "W2, 72 h"}},
  "data": [
    {"smiles": "O=C1CCc2c3c4c(cc(O)cc4c4ccc(O)c1c24)[C@H](O)CC3", "values": [
      {"measurement": "IC50", "setting": "K562", "result": 83.1, "unit": "µM"},
      {"measurement": "IC50", "setting": "SGC-7901", "result": 27.5, "unit": "µM"},
      {"measurement": "IC50", "setting": "Bel-7402", "result": 40.9, "unit": "µM"}
    ]},
    {"smiles": "O=C1C[C@H](O)[C@@H]2c3c(ccc(O)c31)-c1ccc(O)c3c1[C@@]2(O)CCC3=O", "note": "[ALTERTOXIN I]", "values": [
      {"measurement": "GI50", "setting": "[1]", "result": 20, "unit": "µg/mL"}
    ]},
    {"smiles": "O=C1C[C@H](O)[C@@H]2c3c(ccc(O)c31)-c1ccc(O)c3c1[C@@]2(O)C=CC3=O", "values": [
      {"measurement": "IC50", "setting": "MCF7", "result": 1.9, "unit": "µM"},
      {"measurement": "IC50", "setting": "HepG2", "result": 1.9, "unit": "µM"},
      {"measurement": "IC50", "setting": "NCI-H460", "result": 1.9, "unit": "µM"},
      {"measurement": "IC50", "setting": "SF-268", "result": 1.9, "unit": "µM"},
      {"measurement": "IC50", "setting": "[2]", "result": 30, "unit": "µM"}
    ]},
    {"smiles": "O=C1C[C@@H](O)[C@]2(O)c3c(ccc(O)c31)-c1ccc(O)c3c1[C@@H]2[C@H]1O[C@@H]1[C@@H]3O", "values": [
      {"measurement": "IC50", "setting": "Leishmania donovani", "result": 2.5, "unit": "µg/mL"}
    ]},
    {"smiles": "O=C1CC[C@]2(O)c3c(ccc(O)c31)-c1ccc(O)c3c1[C@H]2[C@H]1O[C@H]1C3=O", "values": [
      {"measurement": "IC50", "setting": "L5178Y", "result": 6.2, "unit": "µM"},
      {"measurement": "GI50", "setting": "[1]", "result": 0.5, "unit": "µg/mL"},
      {"measurement": "IC50", "setting": "MCF7", "result": 1.9, "unit": "µM"},
      {"measurement": "IC50", "setting": "HepG2", "result": 1.9, "unit": "µM"},
      {"measurement": "IC50", "setting": "NCI-H460", "result": 1.9, "unit": "µM"},
      {"measurement": "IC50", "setting": "SF-268", "result": 1.9, "unit": "µM"},
      {"measurement": "IC50", "setting": "PC-3", "result": 14.3, "unit": "µM"}
    ]},
    {"smiles": "CO[C@H]1CC(=O)c2c(O)ccc3c2[C@@]1(O)[C@@H]1c2c-3ccc(O)c2[C@@H](O)[C@@H]2O[C@@H]21", "values": [
      {"measurement": "IC50 at 48 h", "setting": "[3]", "result": 12.5, "unit": "µM"},
      {"measurement": "IC50", "setting": "Leishmania donovani", "result": 1.4, "unit": "µg/mL"},
      {"measurement": "IC50", "setting": "Plasmodium falciparum [4]", "result": 3.2, "unit": "µg/mL"},
      {"measurement": "IC50", "setting": "Plasmodium falciparum [5]", "result": 2.5, "unit": "µg/mL"}
    ]},
    {"smiles": "O=C1C[C@H](O)[C@H]2c3c(ccc(O)c31)-c1ccc(O)c3c1[C@@]2(O)[C@H](O)CC3=O", "values": [
      {"measurement": "IC50 at 48 h", "setting": "[3]", "result": 9.8, "unit": "µM"},
      {"measurement": "IC50", "setting": "Leishmania donovani", "result": 4.4, "unit": "µg/mL"},
      {"measurement": "IC50", "setting": "Plasmodium falciparum [4]", "result": 4.2, "unit": "µg/mL"},
      {"measurement": "IC50", "setting": "Plasmodium falciparum [5]", "result": 3.6, "unit": "µg/mL"}
    ]},
    {"smiles": "O=C1CC[C@]2(O)c3c(ccc(O)c31)-c1ccc(O)c3c1[C@H]2[C@H]1O[C@H]1[C@@H]3O", "values": [
      {"measurement": "IC50", "setting": "Leishmania donovani", "result": 3.1, "unit": "µg/mL"}
    ]},
    {"smiles": "O=C1C[C@H](O)[C@@H]2c3c(ccc(O)c31)-c1ccc(O)c3c1[C@@]2(O)[C@H](O)CC3=O", "values": [
      {"measurement": "IC50", "setting": "K562", "result": 53.5, "unit": "µM"}
    ]}
  ]
}
